Laboratory results: patent US7927849B2, “Laccase enzyme and use thereof” (AB Enzymes OY, priority 2004, dated 2011)
One block for each molecule: values may come before it.

Assays:
[1] = Denim bleaching: laccase-mediator (100 nkat/g, 5 mg/g, 30 min, 60° C.) compared to sodium hypochlorite (15 min, 40° C.)
Procedure: Different types of demin were treated with a TaLcc1 laccase product from Trichoderma strain RF5597 and DeniLite II Base from Novozymes and the results obtained were compared to hypochlorite bleaching. All together 27 pieces of different kinds of denim (whole jeans), which had been previously washed with cellulase after desizing to different abrasion levels or had been only desized with ECOSTONE®A200 (60° C., 10 min), were collected for the test (Table 15). The jeans were made of Indigo dyed denim, except the English jeans contained Indigo dyed denim with sulphur bottom. Jeans were cut in such a way that pieces from the same pair of jeans could be used for all tests.
The jeans were made of Indigo dyed denim (right hand twill), except the English jeans contained Indigo dyed denim with sulphur bottom. The weights of the original (i.e. not desized) denim fabrics were typically higher than 475 g/m^2 (14 oz/yd^2). The weights of three 10 cm×10 cm pieces were measured after 24 hours incubation at room temperature (ca. 22° C. and at relative moisture ca. 64%).
The laccase treatments were performed with Electrolux's Wascator FOM 71 CLS washer extractor under optimal conditions for each enzyme, described in Table 16. Methyl syringate (Example 7) was used as a mediator. Laccase was inactivated after draining by raising the pH above 11 by NaOH (10 min, 60° C.) and rinsing for three times. The fabrics were dried in a tumbler.
The sodium hypochlorite bleaching was performed with Electrolux's Wascator FOM 71 CLS washer extractor using denim obtained from the same jeans as in laccase treatments under conditions described in Table 17. Sodium hydroxide was added before adding 25 ml/l of 10% sodium hypochlorite solution (Klorite Forte, Farmos Oy) to keep the pH above 10.5 during the treatment. After draining the bleach liquor, there was one 2 minutes rinsing step with the liquor ratio of 1:20 before dechlorinating with sodium thiosulphate. After dechlorinating the denim samples were rinsed 3 times for 2 minutes with the liquor ratio of 1:20. The fabrics were dried in a tumbler.
The bleaching effect was evaluated by measuring the colour as reflectance values as in Example 7. […] Different looks were obtained depending on the type of the denim and cellulase treatment used. “Sulphur-bottom type” denim was the most difficult to bleach.

[2] = substrate: COc1cc(/C=N/N=C/c2cc(OC)c(O)c(OC)c2)cc(OC)c1O; assay: purified protein, by the assay type; assay type: biochemical, Thielavia arenaria; conditions: other: syringaldazin and DMP, 40 mM MES buffer, pH 6 and 25 mM succinate buffer, 25° C.
Procedure: On syringaldazin and DMP 40 mM MES buffer, pH 6 and 25 mM succinate buffer. All activity assays were carried out at 25° C. Kinetic parameters were estimated by a nonlinear regression curve fit. The values were compared to those of Melanocarpus albomyces MaL, laccase.

[3] = sample B1: Basic Jeans, Ecostone P1250
[4] = sample E1: English jeans (sulphur bottom), desized only
[5] = sample E2: English jeans, Ecostone NP2000
[6] = sample E3: English jeans, Rocksoft NCE-EA
[7] = sample E4: English jeans, Rocksoft NCE-2X
[8] = sample E5: English jeans, Ecostone L900
[9] = sample E6: English jeans, Ecostone L900
[10] = sample E7: English jeans, Ecostone L900
[11] = sample L1: Lee Cooper jeans, desized only
[12] = sample L2: Lee Cooper jeans, Ecostone L
[13] = sample L3: Lee Cooper jeans, Biotouch C29
[14] = sample L4: Lee Cooper jeans, Ecostone L
[15] = sample L5: Lee Cooper jeans, Indiage Max L
[16] = sample L6: Lee Cooper jeans, Indiage Super L
[17] = sample L7: Lee Cooper jeans, Ecostone CXP500 Exper.
[18] = sample L8: Lee Cooper jeans, Ecostone CXP experimental
[19] = sample L9: Lee Cooper jeans, Ecostone N400
[20] = sample T1: Tincan jeans, desized only
[21] = sample T2: Tincan jeans, Ecostone N400
[22] = sample T3: Tincan jeans, Ecostone L300
[23] = sample T4: Tincan jeans, Denimax 991S
[24] = sample W1: Warric jeans, desized only
[25] = sample W2: Warric jeans, Ecostone P4500
[26] = sample W3: Warric jeans, Indiage Max G
[27] = sample W4: Warric jeans, Ecostone NP2000
[28] = sample W5: Warric jeans, Ecostone L900
[29] = sample W6: Warric jeans, Denabraide MBL 65 E

L* after treatment [1, 3]: 40.62
b* after treatment [1, 3]: −17.37
L* after treatment [1, 4]: 21.91
b* after treatment [1, 4]: −15.03
L* after treatment [1, 5]: 33.30
b* after treatment [1, 5]: −16.43
Increase of L* [1, 6]: 9.40
L* after treatment [1, 6]: 34.13
b* after treatment [1, 6]: −16.73
L* after treatment [1, 7]: 35.83
b* after treatment [1, 7]: −16.86
L* after treatment [1, 8]: 33.85
b* after treatment [1, 8]: −16.48
L* after treatment [1, 9]: 30.61
b* after treatment [1, 9]: −16.65
L* after treatment [1, 10]: 32.36
b* after treatment [1, 10]: −16.75
L* after treatment [1, 11]: 31.23
b* after treatment [1, 11]: −20.83
L* after treatment [1, 12]: 44.11
b* after treatment [1, 12]: −18.60
L* after treatment [1, 13]: 39.71
b* after treatment [1, 13]: −19.67
L* after treatment [1, 14]: 40.63
b* after treatment [1, 14]: −19.25
L* after treatment [1, 15]: 39.47
b* after treatment [1, 15]: −19.48
L* after treatment [1, 16]: 41.50
b* after treatment [1, 16]: −18.68
L* after treatment [1, 17]: 37.91
b* after treatment [1, 17]: −19.85
L* after treatment [1, 18]: 40.74
b* after treatment [1, 18]: −19.12
L* after treatment [1, 19]: 40.82
b* after treatment [1, 19]: −18.82
L* after treatment [1, 20]: 33.97
b* after treatment [1, 20]: −17.95
L* after treatment [1, 21]: 34.38
b* after treatment [1, 21]: −18.22
L* after treatment [1, 22]: 40.33
b* after treatment [1, 22]: −18.30
L* after treatment [1, 23]: 37.66
b* after treatment [1, 23]: −18.58
L* after treatment [1, 24]: 27.75
b* after treatment [1, 24]: −18.76
L* after treatment [1, 25]: 39.35
b* after treatment [1, 25]: −17.39
L* after treatment [1, 26]: 41.11
b* after treatment [1, 26]: −16.79
L* after treatment [1, 27]: 38.07
b* after treatment [1, 27]: −17.33
L* after treatment [1, 28]: 37.12
b* after treatment [1, 28]: −18.03
L* after treatment [1, 29]: 36.65
b* after treatment [1, 29]: −17.95
Molecule: OCl [sodium hypochlorite, reference compound]

B1: Thielavia arenaria ALKO4197 laccase TaLcc1, recombinant (rTaLcc1, expressed in Trichoderma reesei), SEQ ID NO: 12 (Canariomyces arenarius) (protein)
chain: APPANPVQRDMLQVLEARQSGPTCNTPSNRACWTNGFDINTDYEVSTPNTGRTVAYQLTLTEKENWIGPDGVLKNVVMLVNDKIIGPTIRANWGDNIEVTVINNLKTNGTSMHWHGLRQLGNVFNDGANGVTECPIPPKGGRKTYKFRATQYGTSWYHSHFSAQYGNGVVGTIQIDGPASLPYDIDLGVFPLMDYYYRSADELVHFTQSNGAPPSDNVLFNGTARHPETGAGQWYNVTLTPGKRHRLRIINTSTDNHFQVSLVGHNMTVIATDMVPVNAFTVSSLFLAVGQRYDVTIDANSPVGNYWFNVTFGDGLCGSSNNKFPAAIFRYQGAPATLPTDQGLPVPNHMCLDNLNLTPVVTRSAPVNNFVKRPSNTLGVTLDIGGTPLFVWKVNGSAINVDWGKPILDYVMSGNTSYPVSDNIVQVDAVDQWTYWLIENDPTNPIVSLPHPMHLHGHDFLVLGRSPDELPSAGVRHIFDPAKDLPRLKGNNPVRRDVTMLPAGGWLLLAFKTDNPGAWLFHCHIAWHVSGGLSVDFLERPNDLRTQLNSNAKRADRDDFNRVCREWNAYWPTNPFPKIDSGLRHRFVEESEWMVR
notes: predicted mature residues 22-604; no tag stated
Km [2]: 4.3 µM
kcat [2]: 32.3 s⁻¹
kcat/Km [2]: 7.52e+06 M⁻¹ s⁻¹
